Key:
HBV = experiment: Anti-HBV activity in AD38 cells (secreted HBV DNA, qPCR); format: cell-based; settings: 4-day incubation
Procedure: (§1) Anti-HBV activity of tenofovir of formulas 4f, 4h, 4k, 4m (test compounds) was evaluated in the cell line of human hepatoma AD38 carrying integrated HBV DNA with terminal repeats [Lander S, et. al, Antimicrobial Agents and Chemotherapy, 1997, pp. 1715-1720]. The cell line was made available by Dr. C. Seeger, Fox Chase Cancer Center, Philadelphia, Pa.). Simultaneously, cytotoxicity was evaluated.
The cells were cultivated in complete DMEM/F12 culture medium containing 2 mM of L-glutamine (Thermo Scientific, Cat #11320033), 10% fetal bovine serum (ThermoFisher Scientific, Cat#), 1% antibiotic-antimycotic solution (ThermoFisher Scientific, Cat#15240096), and 0.3 μg/ml of tetracycline (Sigma, Cat # T7660-5G). The cells were seeded into 96-well Corning Biocoat plates (Corning, Cat # 356407) in 225 μl of complete medium without tetracycline, 20 000 cells per well. The test compounds were dissolved first in DMSO (Sigma cat. D2650), then in DMEM/F12 medium, and 9 dilutions in log 3 steps (225 μl) were added to the cells. The final concentrations of test compounds varied from […] to 1 nM. […]
The technique of real-time quantitative polymerase chain reaction (RT-qPCR) was applied using the CFX96TM Real-Time System instrument (Bio-Rad, Hercules, Calif.) and polymerase AmpliTaq Gold® DNA Polymerase (Applied Biosystems®). […]
The fluorescent signal was read at the end of each cycle. […]

AD38 cell line = experiment: Cytotoxicity in AD38 cells (ATPLite); format: cell-based, human; settings: 3 days
Procedure: as §1
The cytotoxicity of test compounds was determined simultaneously on the same AD38 cell line. The cells were cultivated in a 96-well black plate with a transparent bottom (10^4 cells/well) in complete DMEM/F12 medium containing 2 mM of L-glutamine (Thermo Scientific, Cat #11320033), 10% fetal bovine serum (ThermoFisher Scientific, Cat#), and 1% antibiotic-antimycotic solution (ThermoFisher Scientific, Cat#15240096). The AD38 cells were seeded in 96-well plates (7.5×10^3 cells/well in 100 μl of medium). The solutions of test compounds in DMEM were prepared immediately before use. […] The number of living cells was counted using the ATPLite kit (Perkin Elmer, Boston, USA) in compliance with manufacturer's instructions. […] After additional 5-minute incubation on a rocking platform at 600 rev/min, the plates were kept in dark for 10 minutes, and the luminescence was read using TopCount NXT (Packard, Perkin Elmer). […] CC50 values (Table 2) were then determined using XLfit 4 software.

[1] = system: NL4.3 HIV strain (NL4.3-GFP); experiment: Anti-HIV activity in SupT1 cells infected with NL4.3-GFP; format: cell-based; settings: read after 45 hours
Procedure: (§2) The anti-HIV activity of active ingredients (test compounds) was evaluated using SupT1 cells. The cells were infected with the NL4.3 HIV strain carrying a gene of green fluorescence protein (NL4.3-GFP). The virus preparation was obtained by transfection of 293T cells of proviral DNA. Forty-eight hours after the transfection, the preparation was frozen and stored until use. To enhance the infection efficiency, the suspension of SupT1 cells was precipitated from the infection mixture by centrifugation. Test compounds were added to the cells immediately before virus addition. After a 2-hour incubation, the infection mixture was replaced by fresh culture medium with test compounds. The infection efficiency was evaluated following 45 hours by counting the percent of fluorescing cells against noninfected cell cultures. The cytotoxicity of test compounds was evaluated simultaneously at the same, but not infected, SupT1 cellular line using the XTT reagent. To this end, serial ten-fold dilutions of test compounds were prepared (starting with 10 μM to evaluate viral activity or with 100 μM to evaluate cytotoxicity). […] As a result, the values of activity EC50, cytotoxicity CC50, and selectivity index SI were calculated. The test quality was evaluated using the following controls: signal to background ratio, integrase inhibitor raltegravir (1 μM), and reproducibility of the test. […]

SupT1 cells = experiment: Cytotoxicity in non-infected SupT1 cells (XTT reagent); format: cell-based
Procedure: as §2

[2] = Acute toxicity of SODF, intragastric administration to rats; format: in vivo; settings: 3000 mg/kg
Procedure: (§3) Evaluation of SODF acute toxicity and tolerated toxic and lethal doses for single intragastric administration to male and female mice and rats. Evaluation was carried out for 24 male rats weighing 235-260 g and […] female rats weighing 225-250 g as well as for 24 male mice weighing 21-25 g and 24 female mice weighing 20-24 g. All in all, there were 8 groups in each of the four categories. SODF was administered in the largest possible volume 10 ml/kg three times a day at a 40-minute interval. Prior to administration, SODFs were dispersed, then ground in a mortar and mixed with a 0.5% Tween 80 solution to obtain a suspension suitable for intragastric administration to animals at a dose of ≤10 ml/kg. Solutions for administration were always prepared on the day of administration. Prepared SODF suspensions were administered at the same time every day (within a deviation of maximum 4 hours). […] On each of the 14 days following SODF administration, the weights of rats and mice were recorded and the animals were examined to detect any cases of death or abnormal condition. In this way, parameters of acute SODF toxicity were established.

[3] = Acute toxicity of SODF, intragastric administration to mice; format: in vivo; settings: 3000 mg/kg
Procedure: as §3

## CC(C)OC(=O)[C@H](C)N[P@](=O)(CO[C@H](C)Cn1cnc2c(N)ncnc21)Oc1ccccc1 [Compound 4f, tenofovir alafenamide hemifumarate]
HBV
  EC50: 0.3 to 0.7 nM
AD38 cell line
  CC50: 3000 nM
[1]
  EC50: 43 nM
SupT1 cells
  CC50: > 100000 nM

## CCC(=O)[N-]S(=O)(=O)c1ccc(NC(=O)Cc2ccc(Br)c(Oc3cc(Cl)cc(C#N)c3)c2F)c(Cl)c1.[Na+] [Compound 1a, elsulfavirine sodium]
[2]
  body weight gain: did not affect body weight gain
[3]
  body weight gain: did not affect body weight gain
